Experimental data from patent US5962493A, “2-mercaptobenzimidazole derivatives and antihyperlipemic agent or antiarteriosclerotic agent containing the same” (priority 1997, dated 1999).
Like-named read-outs stand apart in the source and are kept apart here.

Columns and labels:
[1] = test system: mouse peritoneal macrophage; test: In vitro tests on inhibition of foaming of macrophage with mouse peritoneal macrophage (cholesteryl ester formation); assay type: cell-based, mouse (female ICR); conditions: 16 hours at 37° C., read-out: CE (%) (cholesteryl ester-forming rate, ratio to the control)
Procedure: (1) In vitro tests on inhibition of foaming of macrophage with mouse peritoneal macrophage:
The necks of 15-week old female ICR mice (Japan SLC) were cut off. After blood-letting, Hanks buffer solution (Nissui Seiyaku Co., Ltd.) was injected into the abdominal cavity of each mouse. The abdomen was massaged and then the buffer solution was rapidly recovered, centrifuged at 1000 rotations for 5 minutes to collect the peritoneal macrophages. The peritoneal macrophases thus collected were then suspended in GIT medium (Wako Pure Chemical Industries, Ltd.), and the suspension was spread on a 24-hole microplate. After the cultivation at 37° C. in 5% CO2 for 2 hours, the medium was replaced with a Dulbecoo Modified Eagle's MEM medium (Nissui Seiyaku Co., Ltd.). After the cultivation at 37° C. in 5% CO2 for additional 16 hours, the following substances were added in the following order:
(1) subject: dissolved in DMSO (Wako Pure Chemical Industries, Ltd.)
PC: phosphatidyl choline (a product of Funakoshi)
PS: phosphatidyl serine (ditto)
DCP: dicetyl phosphate (ditto)
CHOL.: cholesterol (Sigma).
After further cultivation at 37° C. in 5% CO2 for 16 hours, the lipid fraction was extracted with chloroform and methanol. The lipid fraction thus extracted was dissolved in isopropyl alcohol, and the formed cholesteryl ester (CE) was determined by an enzymatic coloring method. The cholesteryl ester-forming rate of each compound was calculated in terms of the ratio thereof to the control. The cytotoxicity was examined by microscopic observation of the shape of the cell.
The pharmacological effects of the compounds given in Table 2 were evaluated in the same manner as that of Example 3.

total blood cholesterol = test: Effect of reducing blood lipid of rabbit having high-cholesterol feed; assay type: in vivo, rabbit (male New Zealand white); conditions: 30 mg/kg/day mixed with high-cholesterol food, 14 days; based on the control; group of three rabbits
Procedure: (2) Effect of reducing blood lipid of rabit having high-cholesterol feed:
A high-cholesterol food (100 g/day/rabbit: ORC-4 of Oriental Yeast Co., Ltd. +0.5% cholesterol +0.5% olive oil) was given to each of male New Zealand white rabbits weighing about 2 kg for seven days to make them suffer from hypercholesterolemia.
In the next stage, the high-cholesterol food was still given to the rabbits and, in addition, 30 mg/kg/day/rabbit of the test compound (2) was continuously given in the form of a mixture thereof with the food to a group of three rabbits (test group) for 14 days. On the other hand, only the same high-cholesterol food as above was given in the equal dose to another group of three rabbits (control group).
After the continuous feeding for 14 days followed by fasting for one day, a small amount of the blood was taken from the parotid vein to determine the total blood cholesterol (latripo TC: a product of latron Co. Ltd.).

Acute Toxicity Test = test: Acute Toxicity Test; parameters: species or system mouse (8-week ddy); conditions: mouse, in vivo; oral, 0.5% Tween 80 suspension, six 8-week ddy mice, observed for one month
Description: The compound (2) was suspended in 0.5% Tween 80 solution.
The compound I-7 was suspended in 0.5% Tween 80 solution.

[2] = test system: mouse peritoneal macrophage; conditions: dose 5 μM, microscopic observation

Structure (SMILES)	activity at 5 µM ([1]; Table 1, ratio to control)	total blood cholesterol decreasing rate (total blood cholesterol)	LD50 at 730 h (Acute Toxicity Test)	Cytotoxicity ([2]; Table 1)	activity at 5 µM ([1]; Table 2, ratio to control)	Cytotoxicity ([2]; Table 2)
CCC(=O)n1c(SCCOCCSc2nc3ccccc3n2C(=O)CC)nc2ccccc21 [Compound (2)]	7%	25%	≥ 5000 mg/kg	none		
c1ccc2[nH]c(SCCCCCSc3nc4ccccc4[nH]3)nc2c1 [Compound I-7, 1,5-bis(2-benzimidazoylthio)pentane]			≥ 5000 mg/kg			
c1ccc2[nH]c(SCCCCCCCCSc3nc4ccccc4[nH]3)nc2c1 [IV-2, 1,8-bis(2-benzimidazoylthio)octane]					28%	none
